According to paper PMC12165799, “Antimicrobial peptide developed with machine learning sequence optimization targets drug resistant Staphylococcus aureus in mice” (The Journal of Clinical Investigation, 2025):
Read-outs that look alike come from different tables or passages of the source.

Columns and labels:
[1] = tested on: VRSA (S. aureus VRS1) biofilm; experiment: Biofilm viability assay on solid support (VRS1); assay type: cell-based, Staphylococcus aureus; details: for Bacterial load of 24 hour established biofilm on solid membrane: S. aureus VRS1, 24 h in PBS
[2] = tested on: MRSA (S. aureus MW2) biofilm; experiment: Biofilm viability assay on solid support (MW2); assay type: cell-based, Staphylococcus aureus; details: for Bacterial load of 24 hour established biofilm on solid membrane: S. aureus MW2, 24 h in PBS
S. aureus MW2 = experiment: Minimal inhibitory concentration (MIC) assay, broth microdilution; assay type: cell-based, Staphylococcus aureus
Procedure: 300 Synthesis of peptides
302 Piscataway, NJ, USA).
305 Minimal inhibitory concentration (MIC) assay
We made serial dilutions of 10×
We determined the MIC using OD600
Accordingly, we added 150 mM NaCl,
319 established protocol (5).

[3] = tested on: S. aureus MW2 24 h established biofilm; details: 24 h treatment
Procedure: 346 plated onto TSA plates, and incubated plates at 37°C overnight. The next day, we counted the
347 viable bacterial colonies.
We used TSB medium containing
356 bacteria with water as the positive control, while TSB media with sterile water served as the
357 negative control. After incubation, we carefully removed the TSB medium and washed the wells
358 with PBS (Gibco, MD, USA) to remove loosely attached planktonic cells. We quantified the
359 biomass by staining the biofilms with crystal violet following an established protocol and
360 quantitated the concentration of peptide that inhibits 50% of biofilm formation (MBIC50)(8). We
361 measured the live cell count of the biofilms using XTT dye [2,3-bis(2-methyloxy-4-nitro-5-
362 sulfophenyl)-2H-tertazolium-5-carboxanilide] (ATCC, VA, USA). We calculated the percentage
363 of biofilm growth by normalizing to biofilm growth in wells containing bacteria without peptide
366 Disruption of S. aureus MW2 established biofilms
367 We evaluated the ability of the citropin 1.1-derived peptides to disrupt established biofilms
368 following an established protocol with modifications (5). We prepared exponential cultures of S.
369 aureus MW2 (adjusted to 1 × 10^6 CFU/ml) in TSB medium (supplemented with 0.2% glucose)
370 from overnight grown cultures. We added 100 µl of bacterial culture to flat-bottomed 96-well
371 polystyrene microtiter plates (Cat no. 3595, Corning, NY, USA). We then incubated the plates at
372 37°C for 24 hours in static conditions to allow biofilm formation. After incubation, we carefully
373 pipetted out the TSB medium and washed the wells with PBS (Gibco, MD, USA) to remove
374 loosely attached planktonic cells. We treated the established biofilms in each well with 10 µl of
375 serially diluted 10× peptide solution, followed by the addition of 90 μl TSB medium
376 (supplemented with 0.2% glucose). We incubated the plates for another 24 h at 37°C before
377 processing biomass and live-cell contents. We calculated the concentration of peptide that disrupts
378 50% of established biofilms (MBEC50).

S. aureus MW2 membrane = experiment: Propidium iodide-based membrane permeability; assay type: cell-based, Staphylococcus aureus; details: S. aureus MW2, 60 minutes
Procedure: 484 min at room temperature in the dark based on a previously established protocol (8). We added 90
485 µl of the dye/bacteria mixture to 10 μl of serially diluted 10× peptide concentration in black, 96-
486 well plates (Cat. no. 3904, Corning, NY, USA) and incubated the plates for 1 hour at room
487 temperature. We measured the fluorescence with excitation and emission wavelengths of 485 nm
488 and 525 nm, respectively in endpoint assay mode using a SpectraMax i3x (Molecular Devices,
489 CA, USA) fluorescence reader.
490 Propidium iodide-based membrane permeability
491 We used a propidium iodide (Thermo Fisher Scientific, MA, USA) fluorescence-based
492 bacterial permeation assay to establish membrane-oriented interactions with the designed peptides
493 based on a previously established protocol (8). We prepared exponential phase S. aureus MW2
494 bacteria and diluted to OD600 = 0.4 in PBS. We added PI dye (final concentration = 2 µM) to the
495 bacteria in 1:10 serial dilutions in black, 96-well plates (Cat. no. 3904, Corning, NY, USA) and
496 incubated the plates for 1 hour at room temperature. We then measured the fluorescence with an
497 excitation wavelength of 584 nm and an emission wavelength of 620 nm in endpoint assay mode
498 using a SpectraMax i3x (Molecular Devices, CA, USA) fluorescence reader.
501 To determine the ATP leakage potential of the peptides, we employed a luciferase-based
502 assay(18). In brief, we washed exponential phase of S. aureus MW2 bacteria three times with PBS
503 (pH 7.4) and adjusted the washed cells to OD600 = 0.4 in PBS. Following treatment of the bacteria
504 with 32 µg/ml of CIT-8 peptide at 37°C for 30 min, we centrifuged the cells at 14,000× g for 5
505 min. We transferred 50 µl of each supernatant fraction to black, clear-bottom, 96-well plates

[4] = 40 μg/mL, 24 h established biofilm

H-GLFKVIKKLLKVI-NH2 [CIT-8]
Reduction of viable biofilm cells of VRSA in established biofilms ([1]; 40 μg/mL (abstract)): 4 log10
Reduction of VRSA biofilm burden on solid membrane [1, 4]: 3.8 logs
Bacterial load of 24 hour established biofilm on solid membrane ([1]; 4 μg/ml, replicate 1): 4000000
Bacterial load of 24 hour established biofilm on solid membrane ([1]; 4 μg/ml, replicate 2): 80000000
Bacterial load of 24 hour established biofilm on solid membrane ([1]; 4 μg/ml, replicate 3): 14000000
Bacterial load of 24 hour established biofilm on solid membrane ([1]; 4 μg/ml, replicate 4): 40000000
Bacterial load of 24 hour established biofilm on solid membrane ([1]; 4 μg/ml, replicate 5): 2000000
Bacterial load of 24 hour established biofilm on solid membrane ([1]; 4 μg/ml, replicate 6): 20000000
Bacterial load of 24 hour established biofilm on solid membrane ([1]; 40 μg/ml, replicate 1): 16000
Bacterial load of 24 hour established biofilm on solid membrane ([1]; 40 μg/ml, replicate 2): 6000
Bacterial load of 24 hour established biofilm on solid membrane ([1]; 40 μg/ml, replicate 3): 2400
Bacterial load of 24 hour established biofilm on solid membrane ([1]; 40 μg/ml, replicate 4): 18000
Bacterial load of 24 hour established biofilm on solid membrane ([1]; 40 μg/ml, replicate 5): 12000
Bacterial load of 24 hour established biofilm on solid membrane ([1]; 40 μg/ml, replicate 6): 2200
Reduction of viable biofilm cells of MRSA in established biofilms ([2]; 40 μg/mL (abstract)): 3 log10
Reduction of MRSA biofilm burden on solid membrane [2, 4]: 2.2 logs
Bacterial load of 24 hour established biofilm on solid membrane ([2]; 4 μg/ml, replicate 1): 2200000
Bacterial load of 24 hour established biofilm on solid membrane ([2]; 4 μg/ml, replicate 2): 2000000
Bacterial load of 24 hour established biofilm on solid membrane ([2]; 4 μg/ml, replicate 3): 3600000
Bacterial load of 24 hour established biofilm on solid membrane ([2]; 4 μg/ml, replicate 4): 14000000
Bacterial load of 24 hour established biofilm on solid membrane ([2]; 4 μg/ml, replicate 5): 8000000
Bacterial load of 24 hour established biofilm on solid membrane ([2]; 4 μg/ml, replicate 6): 3800000
Bacterial load of 24 hour established biofilm on solid membrane ([2]; 40 μg/ml, replicate 1): 200000
Bacterial load of 24 hour established biofilm on solid membrane ([2]; 40 μg/ml, replicate 2): 400000
Bacterial load of 24 hour established biofilm on solid membrane ([2]; 40 μg/ml, replicate 3): 800000
Bacterial load of 24 hour established biofilm on solid membrane ([2]; 40 μg/ml, replicate 4): 200000
Bacterial load of 24 hour established biofilm on solid membrane ([2]; 40 μg/ml, replicate 5): 600000
Bacterial load of 24 hour established biofilm on solid membrane ([2]; 40 μg/ml, replicate 6): 200000
MIC, Medium only (S. aureus MW2; S. aureus MW2, TSB): 4 µg/mL
MIC + ZnSO4 (8 μM) (S. aureus MW2; S. aureus MW2, TSB + 8 μM ZnSO4): 4 µg/mL
MIC + MgSO4 (1 mM) (S. aureus MW2; S. aureus MW2, TSB + 1 mM MgSO4): 4 µg/mL
MIC + CaCl2 (2.5 mM) (S. aureus MW2; S. aureus MW2, TSB + 2.5 mM CaCl2): 4 µg/mL
MIC + NaCl (150 mM) (S. aureus MW2; S. aureus MW2, TSB + 150 mM NaCl): 4 µg/mL
MIC + human serum (5%) (S. aureus MW2; S. aureus MW2, TSB + 5% human serum): 8 µg/mL
MIC + human serum (10%) (S. aureus MW2; S. aureus MW2, TSB + 10% human serum): 8 µg/mL
Increase of MIC in human serum (S. aureus MW2; S. aureus MW2, 5%–10% human serum): 2 fold
MIC SA (S. aureus MW2; S. aureus MW2, broth microdilution, TSB, 1 × 10^6 CFU/ml, 37°C 18 h, OD600, duplicate): 4 µg/mL
Established biofilm, biomass (crystal violet), percentage of untreated ([3]; 4 μg/ml, replicate 1): 131.685
Established biofilm, live-cell viability (XTT), percentage of untreated ([3]; 4 μg/ml, replicate 1): 82.5027
Established biofilm, biomass (crystal violet), percentage of untreated ([3]; 4 μg/ml, replicate 2): 134.586
Established biofilm, live-cell viability (XTT), percentage of untreated ([3]; 4 μg/ml, replicate 2): 94.0114
Established biofilm, biomass (crystal violet), percentage of untreated ([3]; 4 μg/ml, replicate 3): 61.6564
Established biofilm, live-cell viability (XTT), percentage of untreated ([3]; 4 μg/ml, replicate 3): 89.5709
Established biofilm, biomass (crystal violet), percentage of untreated ([3]; 8 μg/ml, replicate 1): 62.9601
Established biofilm, live-cell viability (XTT), percentage of untreated ([3]; 8 μg/ml, replicate 1): 83.9897
Established biofilm, biomass (crystal violet), percentage of untreated ([3]; 8 μg/ml, replicate 2): 123.287
Established biofilm, live-cell viability (XTT), percentage of untreated ([3]; 8 μg/ml, replicate 2): 89.9036
Established biofilm, biomass (crystal violet), percentage of untreated ([3]; 8 μg/ml, replicate 3): 70.3988
Established biofilm, live-cell viability (XTT), percentage of untreated ([3]; 8 μg/ml, replicate 3): 92.7553
Established biofilm, biomass (crystal violet), percentage of untreated ([3]; 16 μg/ml, replicate 1): 49.8211
Established biofilm, live-cell viability (XTT), percentage of untreated ([3]; 16 μg/ml, replicate 1): 6.002
Established biofilm, biomass (crystal violet), percentage of untreated ([3]; 16 μg/ml, replicate 2): 67.6508
Established biofilm, live-cell viability (XTT), percentage of untreated ([3]; 16 μg/ml, replicate 2): 15.664
Established biofilm, biomass (crystal violet), percentage of untreated ([3]; 16 μg/ml, replicate 3): 56.1605
Established biofilm, live-cell viability (XTT), percentage of untreated ([3]; 16 μg/ml, replicate 3): 21.3742
Established biofilm, biomass (crystal violet), percentage of untreated ([3]; 32 μg/ml, replicate 1): 28.3231
Established biofilm, live-cell viability (XTT), percentage of untreated ([3]; 32 μg/ml, replicate 1): 9.9063
Established biofilm, biomass (crystal violet), percentage of untreated ([3]; 32 μg/ml, replicate 2): 39.7878
Established biofilm, live-cell viability (XTT), percentage of untreated ([3]; 32 μg/ml, replicate 2): 2.777
Established biofilm, biomass (crystal violet), percentage of untreated ([3]; 32 μg/ml, replicate 3): 32.068
Established biofilm, live-cell viability (XTT), percentage of untreated ([3]; 32 μg/ml, replicate 3): 4.02
Concentration killing 50% of live cells in 24 h established biofilm ([3]; XTT): 12 µg/mL
MBEC50 (50% of biomass disrupted) ([3]; crystal violet, 24 h established biofilm): 24 µg/mL
Propidium iodide fluorescence (membrane permeation) (S. aureus MW2 membrane): increased fluorescence compared with untreated controls
